Reference: patent US10988478B1, “Pyrazolo[1,5a]pyrimidine derivatives as IRAK4 modulators” (Genentech, Inc., priority 2015, dated 2021)

Biological target: human IRAK4 (Homo sapiens (Human), UniProt Q9NWZ3)
Test: IRAK4 kinase inhibition, Transcreener fluorescence polarization ADP assay
Format: biochemical
Conditions: recombinant full-length His6-IRAK4; 125 uM ATP; 90 min; Ki computed using ATP Km 642 uM
Experimental: Compounds were assayed for inhibition of human IRAK4 and IRAK1 catalytic activity using recombinant enzyme produced from insect cells. Full-length IRAK4 protein, carrying an N-terminal His6-Tag, was obtained from Life Technologies (Carlsbad, Calif., USA). The IRAK1 construct was produced internally and was comprised of IRAK1 residues Arg194 to Ser712, preceded by an NH2-terminal His6 tag and the coding sequence for glutathione-S-transferase.

human IRAK4, sequence (Q9NWZ3 whole entry): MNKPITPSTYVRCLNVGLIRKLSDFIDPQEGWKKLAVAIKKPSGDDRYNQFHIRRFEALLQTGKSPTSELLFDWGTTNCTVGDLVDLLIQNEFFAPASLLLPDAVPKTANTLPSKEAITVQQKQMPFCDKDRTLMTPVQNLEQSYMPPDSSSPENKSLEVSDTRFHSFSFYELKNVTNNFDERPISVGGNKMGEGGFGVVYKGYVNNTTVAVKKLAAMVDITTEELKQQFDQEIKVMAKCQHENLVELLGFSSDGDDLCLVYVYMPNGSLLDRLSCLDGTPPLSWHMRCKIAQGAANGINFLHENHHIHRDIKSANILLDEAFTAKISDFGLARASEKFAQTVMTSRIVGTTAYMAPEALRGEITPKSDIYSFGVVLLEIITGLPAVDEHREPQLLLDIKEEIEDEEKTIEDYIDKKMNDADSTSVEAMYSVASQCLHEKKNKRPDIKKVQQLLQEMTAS

Row | Structure (SMILES) | Ki [nM]
1 | C[C@@]1(CO)Cc2cc(NC(=O)c3cnn4cc(F)cnc34)c(N3CCN(CC(F)F)CC3)cc2O1 [Example 132, (S)—N-(6-(4-(2,2-Difluoroethyl)piperazin-1-yl)-2-(hydroxymethyl)-2-methyl-2,3-dihydrobenzofuran-5-yl)-6-fluoropyrazolo[1,5-a]pyrimidine-3-carboxamide] | 4.8
2 | C[C@]1(CO)Cc2cc(NC(=O)c3cnn4cc(F)cnc34)c(N3CCN(CC(F)F)CC3)cc2O1 [Example 133, (R)—N-(6-(4-(2,2-Difluoroethyl)piperazin-1-yl)-2-(hydroxymethyl)-2-methyl-2,3-dihydrobenzofuran-5-yl)-6-fluoropyrazolo[1,5-a]pyrimidine-3-carboxamide] | 4.1
3 | CC(C)N1Cc2cc(NC(=O)c3cnn4cccnc34)c(N3CCOCC3)cc2C1=O [Example 138, N-(2-Isopropyl-6-morpholino-1-oxoisoindolin-5-yl)pyrazolo[1,5-a]pyrimidine-3-carboxamide] | 6.8
4 | CC(C)(O)[C@H](F)CN1Cc2cc(NC(=O)c3cnn4cccnc34)c(N3CCOCC3)cc2C1=O [Example 139, (R)—N-(2-(2-Fluoro-3-hydroxy-3-methylbutyl)-6-morpholino-1-oxoisoindolin-5-yl)pyrazolo[1,5-a]pyrimidine-3-carboxamide] | 1.5
5 | CN1Cc2cc(NC(=O)c3cnn4cccnc34)c(N3CCOCC3)cc2C1=O [Example 140, N-(2-Methyl-6-morpholino-1-oxoisoindolin-5-yl)pyrazolo[1,5-a]pyrimidine-3-carboxamide] | 26
6 | O=C(Nc1cc2c(cc1N1CCOCC1)OC1(CCNCC1)C2)c1cnn2cccnc12 [Example 142, N-(6-Morpholinospiro[3H-benzofuran-2,4′-piperidine]-5-yl)pyrazolo[1,5-a]pyrimidine-3-carboxamide] | 20
7 | CC1(C)Cc2cc(NC(=O)c3cnn4cccnc34)c(N3CCOCC3)c(C#N)c2O1 [Example 143, N-(7-Cyano-2,2-dimethyl-6-morpholino-2,3-dihydrobenzofuran-5-yl)pyrazolo[1,5-a]pyrimidine-3-carboxamide] | 740
8 | Cc1cnc2c(C(=O)Nc3cc4c(cc3N3CCOCC3)OC(C)(C(F)F)C4)cnn2c1 (centres unmarked) [Example 144, N-(2-(Difluoromethyl)-2-methyl-6-morpholino-2,3-dihydrobenzofuran-5-yl)-6-methylpyrazolo[1,5-a]pyrimidine-3-carboxamide] | 13
9 | CCOP(=O)(OCC)OCC1CCN(c2cc3c(cc2NC(=O)c2cnn4cccnc24)CC(C)(C)O3)CC1 [Example 145, [1-[2,2-Dimethyl-5-(pyrazolo[1,5-a]pyrimidine-3-carbonylamino)-3H-benzofuran-6-yl]-4-piperidyl]methyl diethyl phosphate] | 130
10 | O=C(Nc1cc2c(cc1N1CCOCC1)OC1(C2)CN(CC(F)F)C1)c1cnn2cccnc12 [Example 147, N-(1-(2,2-Difluoroethyl)-6′-morpholino-3′H-spiro[azetidine-3,2′-benzofuran]-5′-yl)pyrazolo[1,5-a]pyrimidine-3-carboxamide] | 23
11 | O=C(Nc1cc2c(cc1N1CCOCC1)OC1(C2)CN(CC(F)(F)F)C1)c1cnn2cccnc12 [Example 148, N-[6-Morpholino-1′-(2,2,2-trifluoroethyl)spiro[3H-benzofuran-2,3′-azetidine]-5-yl]pyrazolo[1,5-a]pyrimidine-3-carboxamide] | 6.1
12 | CN1CCC2(CC1)Cc1cc(NC(=O)c3cnn4cccnc34)c(N3CCOCC3)cc1O2 [Example 152, N-(1′-Methyl-6-morpholino-3H-spiro[benzofuran-2,4′-piperidine]-5-yl)pyrazolo[1,5-a]pyrimidine-3-carboxamide] | 12
13 | C[C@]1(COC(F)F)Cc2cc(NC(=O)c3cnn4cccnc34)c(N3CCOCC3)cc2O1 [Example 155, (R)—N-(2-((difluoromethoxy)methyl)-2-Methyl-6-morpholino-2,3-dihydrobenzofuran-5-yl)pyrazolo[1,5-a]pyrimidine-3-carboxamide] | 22
14 | C[C@@]1(COC(F)F)Cc2cc(NC(=O)c3cnn4cccnc34)c(N3CCOCC3)cc2O1 [Example 156, (S)—N-(2-((difluoromethoxy)methyl)-2-Methyl-6-morpholino-2,3-dihydrobenzofuran-5-yl)pyrazolo[1,5-a]pyrimidine-3-carboxamide] | 27

Continued, values first:

Row | Ki [nM] | Structure (SMILES)
15 | 3.3 | C[C@@]1(CO)Cc2cc(NC(=O)c3cnn4cccnc34)c(N3CCC(CO)CC3)cc2O1 [Example 130, (S)—N-(2-(hydroxymethyl)-6-(4-(hydroxymethyl)piperidin-1-yl)-2-methyl-2,3-dihydrobenzofuran-5-yl)pyrazolo[1,5-a]pyrimidine-3-carboxamide]
16 | 170 | CC1(C)Cc2cc(NC(=O)c3cnn4cccnc34)c(N3CCN(C(C)(C)CO)CC3)cc2O1 [Example 137, N-[6-[4-(2-Hydroxy-1,1-dimethyl-ethyl)piperazin-1-yl]-2,2-dimethyl-3H-benzofuran-5-yl]pyrazolo[1,5-a]pyrimidine-3-carboxamide]
17 | 16 | CC1(CO)CCc2cc(NC(=O)c3cnn4cccnc34)c(N3CCOCC3)cc2O1 (centres unmarked) [Example 141, N-(2-(Hydroxymethyl)-2-methyl-7-morpholinochroman-6-yl)pyrazolo[1,5-a]pyrimidine-3-carboxamide]
18 | 27 | CN1CC2(Cc3cc(NC(=O)c4cnn5cccnc45)c(N4CCOCC4)cc3O2)C1 [Example 146, N-(1-methyl-6′-morpholino-3′H-spiro[azetidine-3,2′-benzofuran]-5′-yl)pyrazolo[1,5-a]pyrimidine-3-carboxamide]
19 | 25 | CC1(C)Cc2cc(NC(=O)c3cnn4cccnc34)c(N3CCCN(CC(F)F)CC3)cc2O1 [Example 149, N-(6-(4-(2,2-difluoroethyl)-1,4-diazepan-1-yl)-2,2-dimethyl-2,3-dihydrobenzofuran-5-yl)pyrazolo[1,5-a]pyrimidine-3-carboxamide]
20 | 89 | CC(C)C1(C)Cc2cc(NC(=O)c3cnn4cccnc34)c(N3CCOCC3)cc2O1 (centres unmarked) [Example 150, N-(2-Isopropyl-2-methyl-6-morpholino-2,3-dihydrobenzofuran-5-yl)pyrazolo[1,5-a]pyrimidine-3-carboxamide]
21 | 72 | CC(C)(O)CN1CCN(c2cc3c(cc2NC(=O)c2cnn4cccnc24)CC(C)(CO)O3)CC1 (centres unmarked) [Example 151, N-(6-(4-(2-Hydroxy-2-methylpropyl)piperazin-1-yl)-2-(hydroxymethyl)-2-methyl-2,3-dihydrobenzofuran-5-yl)pyrazolo[1,5-a]pyrimidine-3-carboxamide]
22 | 14 | O=C(Nc1cc2c(cc1N1CCOCC1)O[C@](CO)(C(F)(F)F)C2)c1cnn2cccnc12 [Example 153, (R)—N-(2-(hydroxymethyl)-6-morpholino-2-(trifluoromethyl)-2,3-dihydrobenzofuran-5-yl)pyrazolo[1,5-a]pyrimidine-3-carboxamide]
23 | 9.3 | O=C(Nc1cc2c(cc1N1CCOCC1)O[C@@](CO)(C(F)(F)F)C2)c1cnn2cccnc12 [Example 154, (S)—N-(2-(hydroxymethyl)-6-morpholino-2-(trifluoromethyl)-2,3-dihydrobenzofuran-5-yl)pyrazolo[1,5-a]pyrimidine-3-carboxamide]
